Assay results taken from patent US20040219098A1, “Methods for the treatment of tumors” (priority 2003, published 2004).

Experiments:
JJ5 Breast Cancer cells [1] = assay: Binding of EGF-111In-labeled transferrin composition to breast cancer cells (radioligand binding, kinetics, retention, internalization); set-up: species or system human; conditions: for binding / internalization by cancer cells (in words): JJ5 breast cancer cells
From the text: Breast cancer cells express up to 100-fold higher levels of EGFR than do normal epithelial tissues. EGFR expression in breast cancer bone metastasis biopsies ranged from 1-1300 fmol/mg membrane protein (approximately 400-1,000,000 receptors/cell) and was associated with high relapse rates and poor long term survival. Normal epithelial cells express <10^4 receptors/cell. For the normal breast cell line HBL-100, 8000 EGFR/cell has been reported. The expression of EGFR in breast cancer cell lines has a reported range of 800 EGFR/cell for MCF-7 cells to 10^6 EGFR/cell for MDA-MB-468 cells. […] Utilizing the Auger electron emitter In was used in the initial experiments to illustrate the utility of the invention using EGF-^111In-labeled transferrin compositions. The EGF-^111In-labeled transferrin (0.25-80 ng) was incubated with 1.5×10^6 cells/dish JJ5 Breast Cancer (prepared from BCBM JJ5) cells in 1 mL of 0.1% human serum albumin in 35 mm multiwell culture dishes at 37° C. for 30 minutes. The cells were transferred to a centrifuge tube and centrifuged. The cell pellet was separated from the supernatant and counted in a g-scintillation counter to determine bound (B) and free (F) radioactivity. Non-specific binding was determined by conducting the assay in 100 nM hEGF. The kinetics of binding was determined by incubating 1 ng of EGF-^111In-labeled transferrin composition with 3×10^6 JJ5 Breast Cancer cells at 37° C. and determining the proportion of radioactivity bound to the cells at various times up to 24 hours. Internalized fraction was measured by determining the proportion of radioactivity which could not be displaced from the cell surface by 100 nM hEGF. Cell-associated binding (surface-binding and intracellular accumulation) was expressed as a percentage of medium radioactivity bound per mg of cell study protein.
EGF-^111In-labeled transferrin composition was rapidly bound by the breast cancer cells and retained for at least 24 hours. Over a 24 hour period at 37° C., <8% was lost from the cells in vitro.

JJ5 Breast Cancer cells [2] = assay: Growth inhibition assay against JJ5 breast cancer cells; assay type: cell-based, human; conditions: cultured 4 days
Method: JJ5 breast cancer cells (prepared from BCBM JJ5) expressing approximately 10^6 epidermal growth factor receptors/cell were incubated with EGF-^111In-labeled transferrin composition, unlabeled hEGF or ^111In-oxine, centrifuged to remove free ligand, then assayed and seeded (10^6 cells/dish) into 35 mm culture dishes. Growth medium was added and the cells were cultured at 37° C./5% CO^2 for 4 days. The cells were then recovered by trypsinization and counted in a hemocytometer. Control dishes contained cells cultured in growth medium containing ^111In-DTPA or growth medium alone.

JJ5 Breast Cancer cells [3] = assay: Cytotoxicity (colony-forming) assay against JJ5 breast cancer cells; assay type: cell-based, human; conditions: 14 days
Method: JJ5 breast cancer cells were incubated with increasing amounts EGF-^111In-labeled transferrin composition or ^111In-oxine, centrifuged to remove free ligand, assayed and then seeded into 50 mm culture dishes. The number of cells seeded was varied from 3×10^4 to 3×10^6 cells to obtain approximately 400 viable colonies/dish taking into account the plating efficiency and the expected level of cytotoxicity. Control dishes contained JJ5 breast cancer cells which were incubated with normal saline. Growth medium was added and the cells were cultured at 37° C./5% CO^2 for 14 days. The growth medium was removed and the colonies were stained with methylene blue (1% in a 1:1 mixture of ethanol and water) then washed twice. The number of colonies per dish was counted using a manual colony counter (Manostat Corp). The plating efficiency was calculated by dividing the number of colonies observed by the number of cells seeded in each dish. The surviving fraction at increasing amounts of EGF-^111In-labeled transferrin composition or ^111In-oxine was calculated by dividing the plating efficiency for dishes containing treated cells with that observed for control dishes with normal saline.
Using a colony-forming assay, the radiotoxicity of internalization for JJ5 breast cancer cells was evaluated.

Compound: EGF-^111In-labeled transferrin composition: human epidermal growth factor (EGF) operatively linked via linker-biotin/streptavidin to 111In-radiolabeled human transferrin
- time retained by the breast cancer cells (JJ5 Breast Cancer cells [1]; 37° C., in vitro): at least 24 hours
- binding / internalization by cancer cells (in words) (JJ5 Breast Cancer cells [1]): rapidly bound
- binding / internalization by cancer cells (in words) (JJ5 Breast Cancer cells [1]; listed as EGF-^111In-labeled transferrin compostions): rapidly internalized
- affinity constant for binding to JJ5 cells (JJ5 Breast Cancer cells [1]; association (affinity) constant, 37° C., 30 minutes, non-specific binding in 100 nM hEGF): 8e+08 L/mol
- 111In radioactivity lost from the cells (JJ5 Breast Cancer cells [1]; over a 24 hour period at 37° C., in vitro): < 8%
- growth inhibition of the JJ5 cells compared to the medium control (JJ5 Breast Cancer cells [2]; 3.4 pCi/cell): 83%
- reduction in cell survival (JJ5 Breast Cancer cells [3]; 8 pCi/cell): 99%

Compound: [In+3].[O-]c1cccc2cccnc12.[O-]c1cccc2cccnc12.[O-]c1cccc2cccnc12 [^111In oxine, reference compound]
- growth inhibition of the JJ5 cells compared to the medium control (JJ5 Breast Cancer cells [2]; 3.5 pCi/cell): 91%
- cell killing (JJ5 Breast Cancer cells [3]; <6 pCi/cell): greater than 99%
